Laboratory results: the supplement of paper PMC10307832

Tests used:
[1] = compound: CC1=CC(=C(N1C2=CC=C(C=C2)Cl)C)C(=O)CN3CCCCC3 [IU1-47]; experiment: relative viability (nuclei count vs DMSO), 5 days (fraction); higher = more cells survive
Outline: (§1)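 A plate was accepted only when its control CV was below 25% and the cells had doubled at least once. Viability is defined from nuclear counts as treated wells divided by vehicle wells, with the median taken across plates. That median covers lung cancer cell lines grown in 1536-well plates, dosed by pinning at five √10-spaced library-drug concentrations, and counted in MetaXpress from 4× Hoechst images after 5 days.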

[2] = compound: Cc1nc(C(=O)NCC(=O)O)c(O)c2ccc(Oc3ccccc3)cc12 [FG-4592]; experiment: as above
Outline: as §1

Row | Cell Line | relative viability ([1]; 0.08 µM) | relative viability ([1]; 0.253 µM) | relative viability ([1]; 0.8 µM) | relative viability ([1]; 2.53 µM) | relative viability ([1]; 8 µM) | relative viability ([2]; 0.08 µM) | relative viability ([2]; 0.253 µM) | relative viability ([2]; 0.8 µM) | relative viability ([2]; 2.53 µM) | relative viability ([2]; 8 µM)
1 | NCI-H1666 | 0.953 | 1.02 | 0.968 | 0.957 | 1.01 | 0.979 | 0.939 | 0.953 | 0.913 | 0.901
2 | NCI-H1703 | 1.03 | 0.75 | 0.894 | 0.921 | 0.922 | 0.901 | 0.823 | 0.935 | 0.904 | 0.772
3 | NCI-H1734 | 1.06 | 1.07 | 0.981 | – | 0.99 | 0.824 | 0.939 | 0.717 | 0.808 | 0.876
4 | NCI-H1755 | 1.11 | 1.11 | 1.09 | 1.04 | 0.958 | 0.958 | 0.941 | 0.916 | 1.02 | 1.03
5 | NCI-H1792 | 0.847 | 0.796 | 0.889 | 0.862 | 0.486 | 0.763 | 0.725 | 0.693 | 0.861 | 0.868
6 | NCI-H1793 | 0.859 | 0.83 | 1.04 | – | 0.864 | 0.569 | 0.812 | – | 0.745 | 0.762
7 | NCI-H1915 | 0.995 | 0.989 | 1.04 | – | 0.905 | 0.951 | 0.959 | 0.918 | 0.955 | 1.02
8 | NCI-H1944 | 1.1 | 1.02 | 0.947 | 0.902 | 0.852 | 0.932 | 0.872 | 0.685 | 0.954 | 0.852
9 | NCI-H1975 | 0.963 | 0.943 | 1.06 | 0.968 | 0.842 | 1 | 0.881 | 0.9 | 0.839 | 0.861
10 | NCI-H1993 | 0.927 | 1.07 | 0.856 | 0.974 | 0.914 | 0.987 | 0.925 | 0.64 | 0.827 | 0.78
11 | NCI-H2009 | 1 | 1 | 1.02 | 0.842 | 1.04 | 1.03 | 0.958 | 1 | 0.902 | 0.953
12 | NCI-H2023 | 0.951 | 0.949 | 1.06 | 0.851 | 1.27 | 0.919 | 0.866 | 0.857 | 0.922 | 0.88
13 | NCI-H2085 | 1.05 | 0.998 | 0.973 | 1.01 | 0.954 | 1 | 0.955 | 0.934 | 0.965 | 1.02
14 | NCI-H2087 | 1.04 | 1.01 | 1.06 | 0.924 | 1 | 0.98 | 0.988 | 1.32 | 1.01 | 1.13
